Results from article PMC9101642 (Molecules, 2022).
Like-named read-outs stand apart in the source and are kept apart here. Marks after values point to notes of the source that are not given here.

Experiments:
[1] = Liver oxidative stress markers after treatment of MNU-induced rats; type: in vivo, Wistar rats; settings: rat, in vivo
In short: (§1)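 Mammary tumours induced in rats by MNU 50 mg/kg i.p. at day 50; after two weeks, compounds given orally at 5 or 50 mg/kg once daily for six weeks. Serum AST, ALT (340 nm), ALP (405 nm) and bilirubin measured; liver homogenate GSH, CAT, MDA by colorimetry; plasma binding by ultrafiltration at 37°C with BCA protein read-out.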

[2] = Plasma protein binding determination; type: in vitro ADME, rat; settings: rat, plasma
Description: Rats were housed at 3 per cage and
The breast cancer was induced after the MNU (Sigma Aldrich CAS No. 684-93-5) administration. An aqueous solution at a concentration of 10 mg/ml was made by wetting the NMU powder with 3% acetic acid and then dissolving it in 0.9% NaCl solution; a fresh solution was prepared for each injection. Rats were given intraperitoneal (i.p.) 50 mg/kg of MNU on the 50th day of age. Animals were divided into different groups with six animals in each group. Group I (intact control) received 0.9% NaCl solution.
Groups II-IV and V-VII were introduced with MNU. Two weeks after MNU treatment, animals were treated orally with synthesized compounds and control substances (5 and 50 mg/kg, for groups II-IV and V-VII, respectively) by gavage once per day for six weeks. Animals in the intact control group and untreated MNU group were given vehicle (Tween 80) according to the experimental protocol. […]
Upon finishing the treatment with synthesized compounds, animals were sacrificed, and plasma, serum, and liver samples were collected. […]
Rat plasma containing either 5 or 50 mg/kg bwt of the tested compounds was incubated at 37°C upper reservoir of the washed Centri-free YM-30 ultrafiltration units (Millipore, Bedford, MA) and then centrifuged for 20 min at 2,000 g. Aliquots of the ultrafiltrates and unfiltered incubation mixtures were analyzed for the total protein concentration by the bicinchoninic acid assay for protein concentration (BCA assay; Pierce, Rockford, IL).

[3] = rat, in vivo
[4] = both, Wistar, rat, in vivo, po
ERβ = ERβ (Homo sapiens, UniProt Q92731); experiment: Fluorescence polarization competition assay: antagonistic potency and relative binding affinity; settings: log of % relative binding affinity, estradiol = 100%
Chain of ERβ (Q92731 whole entry): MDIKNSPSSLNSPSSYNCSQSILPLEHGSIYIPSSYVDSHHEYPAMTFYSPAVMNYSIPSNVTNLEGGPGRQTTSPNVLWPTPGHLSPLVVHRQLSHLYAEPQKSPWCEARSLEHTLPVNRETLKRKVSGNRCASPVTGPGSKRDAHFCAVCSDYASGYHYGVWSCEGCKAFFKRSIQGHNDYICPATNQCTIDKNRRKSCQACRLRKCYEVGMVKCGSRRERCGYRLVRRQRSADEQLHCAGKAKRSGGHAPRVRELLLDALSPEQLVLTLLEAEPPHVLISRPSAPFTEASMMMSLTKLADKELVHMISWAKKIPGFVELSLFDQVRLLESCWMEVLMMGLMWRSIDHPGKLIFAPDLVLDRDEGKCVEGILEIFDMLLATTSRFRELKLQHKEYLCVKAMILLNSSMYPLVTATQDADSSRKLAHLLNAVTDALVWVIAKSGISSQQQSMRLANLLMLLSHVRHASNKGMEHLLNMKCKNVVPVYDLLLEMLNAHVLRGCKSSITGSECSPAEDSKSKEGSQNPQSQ

[5] = test system: progesterone receptor (PR); experiment: ERα functional antagonism cell assay (PR as biomarker) in MCF-7; type: cell-based; settings: Homo sapiens, MCF7; progesterone receptor as biomarker for ERα antagonism in MCF-7
MCF-7 cells = experiment: Cell cycle distribution by flow cytometry; type: cell-based, human; settings: 24 h
MDA-MB-231 cell lines = experiment: MTT antiproliferative assay; type: cell-based, human; settings: read-out: MDA-MB-231 (IC50 nM)
[6] = test system: MNU-induced breast cancer; experiment: In vivo anticancer screening, MNU-induced mammary tumorigenesis; set-up: species or system female Wistar rats
MCF-7 cell lines = experiment: MTT antiproliferative assay; type: cell-based, human; settings: read-out: MCF-7 (IC50 nM)
[7] = test system: Ishikawa endometrial adenocarcinoma cells; experiment: Antiproliferative assay; type: cell-based; settings: Homo sapiens, growth inhibition
[8] = Serum biochemical markers after treatment of MNU-induced rats; type: in vivo, Wistar rats; settings: for ALP (A/L) / ALT (A/L) / AST (U/L) / γ-GT (U/L): serum; for TBC: total bilirubin content
In short: as §1

[9] = test system: MNU-induced breast cancer tissue; experiment: Histopathology of breast sections; type: in vivo, Wistar rats
In short: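 Rats with MNU-induced breast cancer were given selected leads at two concentrations. Breast tissue was examined histopathologically for lobuloalveolar units and epithelial changes, with slides photographed at 200x.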

physchem = settings: pH 7.4
[10] = dose 50 mg/kg (compounds per os after MNU; MNU alone i.p.)

O=C(c1ccc(OCCN2CCCCC2)cc1)c1c(-c2ccc(O)cc2)sc2cc(O)ccc12 [Ral., Raloxifene, reference compound]
CAT ([1]; 5 mg/kg): 10.73±0.32
GSH ([1]; 5 mg/kg): 6.65 mg/g
SOD (U/mg) ([1]; 5 mg/kg): 6.89±0.56 U/mg
TBARS ([1]; 5 mg/kg): 2.31 ± 0.56 nmol/mg
TP ([1]; 5 mg/kg): 42.67 g/L
CAT ([1]; 50 mg/kg): 14.43±0.56
GSH ([1]; 50 mg/kg): 5.54 ± 0.36 mg/g
SOD (U/mg) ([1]; 50 mg/kg): 8.46±0.23 U/mg
TBARS ([1]; 50 mg/kg): 2.63 ± 0.21 nmol/mg
TP ([1]; 50 mg/kg): 44.43 g/L
fraction unbound at 5 mg/kg bwt [2]: 0.0185
fraction unbound at 50 mg/kg bwt [2]: 0.019
WL after MFD (day 1, mg) [3]: 310.54 ± 0.45 mg
WL after MFD (day 5, mg) [3]: 300.54 ± 0.48 mg
BIO ([4]; 5 mg/kg): 93 ^‡
BIO ([4]; 50 mg/kg): 96
logRBA ERβ (ERβ): 1.42 ^†
IC50 [5]: > 100 nM
Cell Cycle (%) G0/G1 (MCF-7 cells; 0.1 nM): 59.14 ± 0.54 *^,†,‡ %
Cell Cycle (%) G2/M (MCF-7 cells; 0.1 nM): 25.03 ± 0.35 *^,†,‡ %
Cell Cycle (%) S (MCF-7 cells; 0.1 nM): 15.83 ± 0.53 *^,†,‡ %
Cell Cycle (%) G0/G1 (MCF-7 cells; 1 nM): 66.52 ± 0.56 *^,†,‡ %
Cell Cycle (%) G2/M (MCF-7 cells; 1 nM): 17.11 ± 0.46 *^,†,‡ %
Cell Cycle (%) S (MCF-7 cells; 1 nM): 16.37 ± 0.46 *^,†,‡ %
IC50 (MDA-MB-231 cell lines; growth inhibition, 48 h): 93.41 ± 0.48 nM
IC50 (MDA-MB-231 cell lines; references in Table S17): 93.12 ± 0.24 nM
Tumor Burden (week) ([6]; dose 5 mg/kg per os after MNU): 3.11 ± 0.47 *^,†,‡ week
Tumor Latency (week) ([6]; dose 5 mg/kg per os after MNU): 8 * week
Tumor Volume (mm^3) ([6]; dose 5 mg/kg per os after MNU): 1.67 ± 0.31 *^,†,‡ mm^3
Tumor Burden (week) [6, 10]: 2.91 ± 0.22 *^,†,§ week
Tumor Latency (week) [6, 10]: 13 *^,† week
Tumor Volume (mm^3) [6, 10]: 1.41 ± 0.54 *^,†§ mm^3
IC50 (MCF-7 cell lines): 0.9 ± 0.19 nM
IC50 [7]: 0.97 ± 0.35 nM
ALP (A/L) ([8]; dose 5 mg/kg): 99.54±0.32 A/L
ALT (A/L) ([8]; dose 5 mg/kg): 50.14±0.35 A/L
AST (U/L) ([8]; dose 5 mg/kg): 53.57±0.43 U/L
γ-GT (U/L) ([8]; dose 5 mg/kg): 11.43 U/L
ALP (A/L) ([8]; dose 50 mg/kg): 106.43±0.54 A/L
ALT (A/L) ([8]; dose 50 mg/kg): 52.46±0.42 A/L
AST (U/L) ([8]; dose 50 mg/kg): 58.41±0.32 U/L
γ-GT (U/L) ([8]; dose 50 mg/kg): 12.35±0.31 U/L
TBC ([8]; dose 5 mg/kg): 18.53
TBC ([8]; dose 50 mg/kg): 22.46
breast section histopathology ([9]; 5 mg/kg of bwt): differentiated extralobular ducts (ED)
breast section histopathology ([9]; 50 mg/kg of bwt): differentiated extralobular ducts (ED)
logD at 30 min (physchem): 2.39
